# Measured values taken from ChEMBL document CHEMBL3621196, “Quinazolinedione SIRT6 inhibitors sensitize cancer cells to chemotherapeutics” (Eur J Med Chem, 2015).
# Calls of active or inactive are those of the source. The calls are words filed in the database; no cut-off is given here.
# Legend:
# [1] = target: T1, NAD-dependent protein deacylase sirtuin-6 (Homo sapiens, UniProt Q8N6T7); assay: Inhibition of human recombinant SIRT6 deacetylase activity using Arg-His-Lys-Lys(AC)-AMC as a substrate by […] assay
# T1 sequence (Q8N6T7 whole entry): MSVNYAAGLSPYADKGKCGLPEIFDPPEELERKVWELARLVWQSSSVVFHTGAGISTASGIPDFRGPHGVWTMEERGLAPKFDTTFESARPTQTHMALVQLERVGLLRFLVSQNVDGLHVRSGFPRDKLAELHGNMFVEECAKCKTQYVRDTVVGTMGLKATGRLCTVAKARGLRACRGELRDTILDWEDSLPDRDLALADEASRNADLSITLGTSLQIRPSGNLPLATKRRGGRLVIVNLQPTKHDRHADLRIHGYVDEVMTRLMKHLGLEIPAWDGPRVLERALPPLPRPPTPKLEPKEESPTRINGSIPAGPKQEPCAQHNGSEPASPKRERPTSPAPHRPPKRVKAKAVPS
# [2] = target: T1, NAD-dependent protein deacylase sirtuin-6; assay: Inhibition of human SIRT6 deacetylase activity using Arg-His-Lys-Lys(AC)-AMC as a substrate by fluorescence assay
# [3] = target: Protein Sirt6 (Rattus norvegicus) (UniProt A6K863); assay: Inhibition of SIRT6 in rat L6 cells assessed as increase in radiolabelled glucose uptake at 100 uM after 18 hrs by fluorescence plate reader relative to control; format: cell-based
# Chain of Protein Sirt6 (Rattus norvegicus) (A6K863 as listed by the source): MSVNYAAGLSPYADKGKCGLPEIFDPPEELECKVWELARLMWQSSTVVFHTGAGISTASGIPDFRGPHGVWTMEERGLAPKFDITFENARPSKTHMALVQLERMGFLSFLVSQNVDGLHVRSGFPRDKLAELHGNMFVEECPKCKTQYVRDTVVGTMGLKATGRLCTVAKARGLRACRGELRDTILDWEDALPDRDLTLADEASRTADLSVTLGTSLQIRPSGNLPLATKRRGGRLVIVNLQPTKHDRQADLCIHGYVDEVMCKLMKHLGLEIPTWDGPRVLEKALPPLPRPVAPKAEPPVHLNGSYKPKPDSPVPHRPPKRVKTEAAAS
# [4] = Cytotoxicity against human BxPC3 cells assessed as cell viability at 30 uM after 72 hrs by CellTiter96 Aqueous1 assay; format: cell-based, BXPC-3; settings: for Activity: bxpc-3, 72 h, 30 µM
# [5] = target: T1, NAD-dependent protein deacylase sirtuin-6; assay: Inhibition of SIRT6 in human BxPC3 cells assessed as reduction in TNF alpha production by ELISA; format: cell-based; settings: BXPC-3, concentration not given here
# [6] = species: Homo sapiens; assay: Selectivity ratio of IC50 for human SIRT2 to IC50 for human SIRT6
# [7] = target: T1, NAD-dependent protein deacylase sirtuin-6; assay: Inhibition of SIRT6 in human PBMC assessed as inhibition of PHA-induced TNF alpha production at 100 uM after 3 days by ELISA
# [8] = species: Homo sapiens; assay: Selectivity ratio of IC50 for human SIRT1 to IC50 for human SIRT6
# [9] = target: T1, NAD-dependent protein deacylase sirtuin-6; assay: Inhibition of SIRT6 in human BxPC3 cells assessed as potentiation of gemcitabine-induced cytotoxicity by measuring cell viability at 30 uM by CellTiter96 Aqueous1 assay; format: cell-based; settings: BXPC-3
# [10] = Cytotoxicity against human HEK293 cells assessed as cell viability using propidium iodide by flow cytometry; format: cell-based; settings: read-out: Activity
# [11] = target: T1, NAD-dependent protein deacylase sirtuin-6; assay: Inhibition of SIRT6 in human BxPC-3 cells assessed as increase in radiolabelled glucose uptake at 100 uM after 18 hrs by fluorescence plate reader relative to control; format: cell-based
# [12] = target: T1, NAD-dependent protein deacylase sirtuin-6; assay: Inhibition of SIRT6 in human PBMC assessed as inhibition of MLR-induced TNF alpha production at 100 uM after 3 days by ELISA
# [13] = target: T1, NAD-dependent protein deacylase sirtuin-6; assay: Inhibition of human SIRT6 in […] Capan1 cells assessed as potentiation of NU1025-induced cytotoxicity by measuring cell viability at 100 uM after 7 days by CellTiter96 Aqueous1 assay; format: cell-based; settings: CAPAN-1
# [14] = target: Protein Sirt6 (Rattus norvegicus) (UniProt A6K863); assay: Inhibition of SIRT6 in rat L6 cells assessed as increase in 2-NBDG uptake at 100 uM after 18 hrs by fluorescence plate reader relative to control; format: cell-based
# [15] = target: T2, NAD-dependent protein deacetylase sirtuin-1 (Homo sapiens, UniProt Q96EB6); assay: Inhibition of human SIRT1 deacetylase activity using Arg-His-Lys-Lys(AC)-AMC as a substrate by fluorescence assay
# T2 sequence (Q96EB6 whole entry): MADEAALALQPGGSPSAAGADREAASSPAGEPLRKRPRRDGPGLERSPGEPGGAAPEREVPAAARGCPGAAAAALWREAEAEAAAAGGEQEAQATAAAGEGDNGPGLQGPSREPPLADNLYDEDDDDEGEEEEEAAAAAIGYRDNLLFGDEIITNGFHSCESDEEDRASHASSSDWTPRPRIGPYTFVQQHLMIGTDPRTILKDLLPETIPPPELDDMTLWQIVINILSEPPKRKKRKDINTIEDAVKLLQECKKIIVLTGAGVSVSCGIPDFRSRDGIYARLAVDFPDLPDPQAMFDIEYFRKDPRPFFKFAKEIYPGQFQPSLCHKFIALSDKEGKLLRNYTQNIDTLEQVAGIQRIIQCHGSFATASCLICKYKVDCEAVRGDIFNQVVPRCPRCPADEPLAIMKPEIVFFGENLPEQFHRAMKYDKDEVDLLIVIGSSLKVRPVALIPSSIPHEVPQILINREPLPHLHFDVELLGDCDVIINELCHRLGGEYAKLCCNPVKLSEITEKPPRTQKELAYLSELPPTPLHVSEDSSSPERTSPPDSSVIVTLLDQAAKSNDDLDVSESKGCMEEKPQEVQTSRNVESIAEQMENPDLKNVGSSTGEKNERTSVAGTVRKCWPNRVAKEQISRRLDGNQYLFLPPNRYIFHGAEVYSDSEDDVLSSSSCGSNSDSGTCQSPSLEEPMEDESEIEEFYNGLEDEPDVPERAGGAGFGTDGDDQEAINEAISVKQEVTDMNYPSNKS
# [16] = target: T3, NAD-dependent protein deacetylase sirtuin-2 (Homo sapiens, UniProt Q8IXJ6); assay: Inhibition of human SIRT2 deacetylase activity using Arg-His-Lys-Lys(AC)-AMC as a substrate by fluorescence assay
# T3 sequence (Q8IXJ6 whole entry): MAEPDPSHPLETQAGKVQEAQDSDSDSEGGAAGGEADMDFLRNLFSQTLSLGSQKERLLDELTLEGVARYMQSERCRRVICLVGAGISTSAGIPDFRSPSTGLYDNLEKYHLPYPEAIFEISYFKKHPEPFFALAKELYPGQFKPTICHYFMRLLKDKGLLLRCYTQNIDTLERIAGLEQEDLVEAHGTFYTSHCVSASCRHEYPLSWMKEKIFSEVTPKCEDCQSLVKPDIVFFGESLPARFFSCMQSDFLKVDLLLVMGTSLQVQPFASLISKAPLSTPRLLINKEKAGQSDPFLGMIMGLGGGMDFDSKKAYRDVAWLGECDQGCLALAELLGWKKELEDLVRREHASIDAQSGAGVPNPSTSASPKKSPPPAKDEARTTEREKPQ
# [17] = target: T1, NAD-dependent protein deacylase sirtuin-6; assay: Inhibition of SIRT6 in human BxPC-3 cells assessed as increase in H3K9 acetylation by immunoblotting assay relative to control; format: cell-based
# [18] = target: T1, NAD-dependent protein deacylase sirtuin-6; assay: Inhibition of SIRT6 in human PBMC assessed as inhibition of MLR-induced TNF alpha production at 200 uM after 3 days by ELISA
# [19] = target: T1, NAD-dependent protein deacylase sirtuin-6; assay: Competitive inhibition of human recombinant SIRT6 deacetylase activity using NAD+ as a substrate at 50 uM by double-reciprocal plot analysis
# [20] = target: T1, NAD-dependent protein deacylase sirtuin-6; assay: Inhibition of human SIRT6 in BRCA2-deficient Capan1 cells assessed as potentiation of olaparib-induced DNA damage by measuring cell viability at 100 uM after 7 days by CellTiter96 Aqueous1 assay; format: cell-based; settings: CAPAN-1
# [21] = target: T1, NAD-dependent protein deacylase sirtuin-6; assay: Inhibition of SIRT6 in human PBMC assessed as inhibition of PHA-induced TNF alpha production at 200 uM after 3 days by ELISA
# [22] = target: T1, NAD-dependent protein deacylase sirtuin-6; assay: Competitive inhibition of human recombinant SIRT6 deacetylase activity using Arg-His-Lys-Lys(AC)-AMC as a substrate at 50 uM by double-reciprocal plot analysis
# [23] = system: CAPAN-1; assay: Induction of DNA damage in human BRCA2-deficient Capan1 cells assessed as increase in gammaH2AX levels at 100 uM after 24 hrs by confocal microscopy; format: functional, cell-based
# [24] = target: T1, NAD-dependent protein deacylase sirtuin-6; assay: Inhibition of human SIRT6 in BRCA2-deficient Capan1 cells assessed as potentiation of olaparib-induced DNA damage by measuring gammaH2AX levels at 100 uM after 24 hrs by confocal microscopy; format: cell-based; settings: CAPAN-1
# [25] = target: T1, NAD-dependent protein deacylase sirtuin-6; assay: Inhibition of human SIRT6 in BRCA2-deficient Capan1 cells assessed as potentiation of olaparib-induced DNA damage by measuring gammaH2AX levels at 100 uM after 24 hrs by flow cytometry analysis; format: cell-based; settings: CAPAN-1
# [26] = system: CAPAN-1; assay: Induction of DNA damage in human BRCA2-deficient Capan1 cells assessed as increase in gammaH2AX levels at 100 uM after 24 hrs by flow cytometry analysis; format: functional, cell-based
# [27] = system: CAPAN-1; assay: Induction of DNA damage in human BRCA2-deficient Capan1 cells assessed as increase in gammaH2AX levels at 8 uM after 24 hrs by confocal microscopy; format: functional, cell-based
# [28] = system: CAPAN-1; assay: Induction of DNA damage in human BRCA2-deficient Capan1 cells assessed as increase in gammaH2AX levels at 8 uM after 24 hrs by flow cytometry analysis; format: functional, cell-based
compound,measurement,setting,value
O=S(=O)(Nc1ccc(Oc2cccnc2)cc1)c1ccccc1,IC50,[1],300 µM
O=c1[nH]c(=O)c2cc(S(=O)(=O)Nc3ccc(Oc4ccccc4)cc3)ccc2[nH]1,IC50,[1],127 µM
O=c1[nH]c(=O)c2cc(S(=O)(=O)Nc3ccc(Cn4ccnc4)cc3)ccc2[nH]1,IC50,[2],60 µM
same,fold increase in glucose uptake,[3],0.8 fold
same,Activity,[4],Non-toxic
same,inhibition,[5],25%
same,Ratio IC50,[6],2.65
same,inhibition,[7],31%
same,Ratio IC50,[8],3.97
same,Activity,[9],Active
same,viability,[10],> 80%
same,fold increase in glucose uptake,[11],0.6 fold
same,inhibition,[12],21%
same,Activity,[13],Active
same,fold increase in 2-NBDG uptake,[14],0.7 fold
same,IC50,[15],238 µM
same,IC50,[16],159 µM
same,fold increase in H3K9 acetylation,[17],1.5 fold
O=c1[nH]c(=O)c2cc(S(=O)(=O)Nc3ccc(Oc4cccnc4)cc3)ccc2[nH]1,inhibition,[18],47%
same,fold increase in glucose uptake,[3],2 fold
same,inhibition,[19],Active
same,Activity,[20],Active
same,inhibition,[21],52%
same,inhibition,[22],Active
same,inhibition,[5],73%
same,Ratio IC50,[6],1.07
same,Ratio IC50,[8],2.96
same,Activity,[23],Active
same,Activity,[24],Active
same,viability,[10],> 50%
same,fold increase in glucose uptake,[11],1.3 fold
same,Activity,[13],Active
same,Activity,[25],Active
same,IC50,[1],136 µM
same,fold increase in 2-NBDG uptake,[14],2.4 fold
same,Activity,[26],Active
same,fold increase in H3K9 acetylation,[17],2.2 fold
O=c1[nH]c(=O)c2cc(S(=O)(=O)NCc3cccc(Cn4ccnc4)c3)ccc2[nH]1,IC50,[1],2870 µM
O=C(c1cc(Cc2n[nH]c(=O)c3ccccc23)ccc1F)N1CCN(C(=O)C2CC2)CC1,Activity,[27],Active
same,Activity,[28],Active
Cn1c(=O)sc2cc(S(=O)(=O)Nc3ccc(Oc4cccnc4)cc3)ccc21,IC50,[2],77 µM
same,IC50,[1],102 µM
O=C1CCc2cc(S(=O)(=O)Nc3ccc(Oc4cccnc4)cc3)ccc2N1,IC50,[2],270 µM
same,IC50,[1],275 µM
O=c1[nH]c(=O)c2cc(S(=O)(=O)Nc3ccccc3-c3ccccc3)ccc2[nH]1,IC50,[2],137 µM
same,IC50,[1],137 µM
O=c1[nH]c(=O)c2cc(S(=O)(=O)NC3CCN(Cc4ccccc4)C3)ccc2[nH]1 (centres undefined),IC50,[1],517 µM
Cn1c(=O)c2cc(S(=O)(=O)Nc3ccc(Cc4ccncc4)cc3)ccc2n(C)c1=O,IC50,[2],49 µM
same,fold increase in glucose uptake,[3],4 fold
same,inhibition,[19],Active
same,"viability at 72 h, 30 µM","[4]; BxPC3 cells, read-out: Activity",75%
same,inhibition,[22],Active
same,Ratio IC50,[6],4.94
same,Ratio IC50,[8],133
same,fold increase in glucose uptake,[11],1.9 fold
same,IC50,[1],38 µM
same,fold increase in 2-NBDG uptake,[14],3.1 fold
same,IC50,[15],6520 µM
same,IC50,[16],242 µM
same,fold increase in H3K9 acetylation,[17],1.6 fold
Cn1ccc2cc(NS(=O)(=O)c3ccc4[nH]c(=O)[nH]c(=O)c4c3)ccc21,IC50,[1],82 µM
O=C1CCCN1c1ccc(S(=O)(=O)Nc2ccc(Oc3cccnc3)cc2)cc1,IC50,[2],441 µM
O=c1[nH]c(=O)c2cc(S(=O)(=O)Nc3cccc(CCc4ccncc4)c3)ccc2[nH]1,IC50,[2],37 µM
same,fold increase in glucose uptake,[3],2.8 fold
same,inhibition,[19],Active
same,Activity,[20],Active
same,Activity,[4],Non-toxic
same,inhibition,[22],Active
same,inhibition,[5],72%
same,Ratio IC50,[6],2.3
same,inhibition,[7],44%
same,Ratio IC50,[8],11.5
same,Activity,[9],Active
same,viability,[10],> 80%
same,fold increase in glucose uptake,[11],1.2 fold
same,inhibition,[12],27%
same,Activity,[13],Active
same,IC50,[1],55 µM
same,fold increase in 2-NBDG uptake,[14],1 fold
same,IC50,[15],424 µM
same,IC50,[16],85 µM
same,fold increase in H3K9 acetylation,[17],1.4 fold
CC(=O)Nc1ccc(S(=O)(=O)Nc2ccc(Oc3cccnc3)cc2)cc1,IC50,[2],297 µM
same,IC50,[1],242 µM
